{"source": "patent US9102621B2", "about": "“Acyl sulfonamide compounds” (Pfizer Limited, priority 2010, dated 2015)", "data": [{"biological_target": "T1, Nav1.7 (or SCN9A) channel (Homo sapiens, UniProt Q15858)", "T1 construct": "expressed in transfected cells", "T1 sequence (Q15858 whole entry)": "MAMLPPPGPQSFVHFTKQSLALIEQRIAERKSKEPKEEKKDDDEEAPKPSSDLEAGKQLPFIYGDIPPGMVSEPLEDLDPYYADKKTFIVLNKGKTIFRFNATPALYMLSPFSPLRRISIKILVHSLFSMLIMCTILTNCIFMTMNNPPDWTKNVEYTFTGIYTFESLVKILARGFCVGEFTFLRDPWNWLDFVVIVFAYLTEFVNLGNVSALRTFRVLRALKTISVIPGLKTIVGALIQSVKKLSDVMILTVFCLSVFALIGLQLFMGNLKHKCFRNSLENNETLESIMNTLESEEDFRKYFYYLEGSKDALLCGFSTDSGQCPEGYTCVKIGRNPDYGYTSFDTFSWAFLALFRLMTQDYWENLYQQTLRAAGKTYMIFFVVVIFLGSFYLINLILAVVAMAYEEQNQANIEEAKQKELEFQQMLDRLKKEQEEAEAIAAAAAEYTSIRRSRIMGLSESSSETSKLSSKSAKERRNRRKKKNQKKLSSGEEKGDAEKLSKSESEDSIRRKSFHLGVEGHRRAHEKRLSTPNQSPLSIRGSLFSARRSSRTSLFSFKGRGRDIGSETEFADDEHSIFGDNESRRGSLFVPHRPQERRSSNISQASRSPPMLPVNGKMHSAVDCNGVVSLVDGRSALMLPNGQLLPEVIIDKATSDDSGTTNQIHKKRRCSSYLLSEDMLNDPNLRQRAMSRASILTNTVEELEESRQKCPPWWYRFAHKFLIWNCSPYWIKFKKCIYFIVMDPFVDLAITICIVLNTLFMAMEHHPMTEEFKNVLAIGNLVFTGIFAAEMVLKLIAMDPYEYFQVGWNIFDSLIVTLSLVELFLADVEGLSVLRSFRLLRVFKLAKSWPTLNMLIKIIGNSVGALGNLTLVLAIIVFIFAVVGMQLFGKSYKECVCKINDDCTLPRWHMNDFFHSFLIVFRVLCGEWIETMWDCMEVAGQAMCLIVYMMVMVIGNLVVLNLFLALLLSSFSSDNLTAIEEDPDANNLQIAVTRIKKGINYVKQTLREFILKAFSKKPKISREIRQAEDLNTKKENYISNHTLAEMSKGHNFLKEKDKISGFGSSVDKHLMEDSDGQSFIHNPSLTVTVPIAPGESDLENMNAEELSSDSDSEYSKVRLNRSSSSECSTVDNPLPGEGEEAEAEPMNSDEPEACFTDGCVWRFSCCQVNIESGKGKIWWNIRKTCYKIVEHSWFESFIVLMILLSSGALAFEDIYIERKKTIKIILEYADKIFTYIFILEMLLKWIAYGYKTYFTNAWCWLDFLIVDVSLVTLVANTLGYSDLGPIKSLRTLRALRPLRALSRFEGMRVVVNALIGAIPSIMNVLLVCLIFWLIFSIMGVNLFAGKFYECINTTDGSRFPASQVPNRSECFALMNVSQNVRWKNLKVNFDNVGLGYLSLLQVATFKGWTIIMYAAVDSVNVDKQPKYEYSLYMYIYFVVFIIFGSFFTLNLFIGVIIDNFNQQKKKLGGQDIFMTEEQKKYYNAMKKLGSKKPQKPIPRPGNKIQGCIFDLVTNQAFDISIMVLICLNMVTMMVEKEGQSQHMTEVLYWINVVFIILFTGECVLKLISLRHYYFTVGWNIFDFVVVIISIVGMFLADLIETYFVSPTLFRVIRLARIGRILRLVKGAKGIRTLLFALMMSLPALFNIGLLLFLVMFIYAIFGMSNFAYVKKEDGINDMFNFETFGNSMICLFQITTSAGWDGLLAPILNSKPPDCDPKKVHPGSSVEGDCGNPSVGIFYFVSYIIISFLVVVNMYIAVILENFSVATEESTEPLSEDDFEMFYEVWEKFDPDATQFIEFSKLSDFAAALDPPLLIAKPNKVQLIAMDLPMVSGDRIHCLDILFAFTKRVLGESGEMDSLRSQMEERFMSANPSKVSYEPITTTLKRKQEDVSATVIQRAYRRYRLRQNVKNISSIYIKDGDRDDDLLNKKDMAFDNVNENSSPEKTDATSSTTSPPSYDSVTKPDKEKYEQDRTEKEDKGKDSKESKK", "assay": "Nav1.7 (hSCN9A) channel block, PatchXpress whole-cell electrophysiology", "assay_type": "cell-based", "conditions": "PatchXpress platform; HEK cells stably transfected with hSCN9A; estimated IC-50 calculated from single point % inhibition at V1/2; read-out: Nav1.7 EIC50", "method": "The ability of the compounds of formula (I) to block the Nav1.7 (or SCN9A) channel were measured using the assay described below.\nHuman Embryonic Kidney (HEK) cells were transfected with an hSCN9A construct using lipofectamine reagent (Invitrogen), using standard techniques. Cells stably expressing the hSCN9A constructs were identified by their resistance to G-418 (400 μg/ml). Clones were screened for expression using the whole-cell voltage-clamp technique.\nHEK cells stably transfected with hSCN9A were maintained in DMEM medium supplemented with 10% heat-inactivated fetal bovine serum and 400 μg/ml G-418 in an incubator at 37° C. with a humidified atmosphere of 10% CO2. For HTS, cells were harvested from flasks by trypsinization and replated in an appropriate multi-well plate (typically 96 or 384 wells/plate) such that confluence would be achieved within 24 hours of plating. For electrophysiological studies, cells were removed from the culture flask by brief trypsinization and re-plated at low density onto glass cover slips. Cells were typically used for electrophysiological experiments within 24 to 72 hours after plating.\nCover slips containing HEK cells expressing hSCN9A were placed in a bath on the stage of an inverted microscope and perfused (approximately 1 ml/minutes) with extracellular solution of the following composition: 138 mM NaCl, 2 mM CaCl2, 5.4 mM KCl, 1 mM MgCl2, 10 mM glucose, and 10 mM HEPES, pH 7.4, with NaOH. […] The osmolarity of the extracellular and intracellular solutions was 300 mOsm/kg and 295 mOsm/kg, respectively. All recordings were made at room temperature (22-24° C.) using AXOPATCH 200B amplifiers and PCLAMP software (Axon Instruments, Burlingame, Calif.).\nhSCN9A currents in HEK cells were measured using the whole-cell configuration of the patch-clamp technique (Hamill et al., 1981). Uncompensated series resistance was typically 2 to 5 mega ohms and >85% series resistance compensation was routinely achieved. As a result, voltage errors were negligible and no correction was applied. Current records were acquired at 20 to 50 KHz and filtered at 5 to 10 KHz.\nHEK cells stably transfected with hSCN9A were viewed under Hoffman contrast optics and placed in front of an array of flow pipes emitting either control or compound-containing extracellular solutions. All compounds were dissolved in dimethyl sulfoxide to make 10 mM stock solutions, which were then diluted into extracellular solution to attain the final concentrations desired. […] The voltage-dependence of inactivation was determined by applying a series of depolarizing prepulses (8 sec long in 10 mV increments) from a negative holding potential. The voltage was then immediately stepped to 0 mV to assess the magnitude of the sodium current. Currents elicited at 0 mV were plotted as a function of prepulse potential to allow estimation of the voltage at which 50% of the channels were inactivated (midpoint of inactivation or V1/2). Compounds were tested for their ability to inhibit hSCN9A sodium channels by activating the channel with a 20 msec voltage step to 0 mV following an 8 second conditioning prepulse to the empirically determined V1/2. Compound effect (% inhibition) was determined by difference in current amplitude before and after application of test compounds. […] Inhibition values <20% and >80% were excluded from the calculation.\nElectrophysiological assays were conducted with PatchXpress 7000 hardware and associated software (Molecular Devices Corp). All assay buffers and solutions were identical to those used in conventional whole-cell voltage clamp experiments described above. hSCN9A cells were grown as above to 50%-80% confluency and harvested by trypsinization. Trypsinized cells were washed and resuspended in extracellular buffer at a concentration of 1×10^6 cells/ml. The onboard liquid handling facility of the PatchXpress was used for dispensing cells and application of test compounds. […]", "units": {"IC50": "µM"}, "values": [{"compound": "[2H]C([2H])([2H])C(Oc1ncc(OCc2cc(F)c(C(=O)NS(C)(=O)=O)cc2Cl)cc1Cl)(C([2H])([2H])[2H])C([2H])([2H])[2H]", "note": "[Example 32, 4-{[(6-d9-tert-Butoxy-5-chloropyridin-3-yl)oxy]methyl}-5-chloro-2-fluoro-N-(methylsulfonyl)benzamide]", "IC50": 0.011}, {"compound": "COc1ncc(OCc2cc(F)c(C(=O)NS(C)(=O)=O)cc2Cl)cc1Cl", "note": "[Example 33, 5-Chloro-4-{[(5-chloro-6-methoxypyridin-3-yl)oxy]methyl}-2-fluoro-N-(methylsulfonyl)benzamide]", "IC50": 0.38}, {"compound": "[2H]C(C)(C)Oc1ncc(OCc2cc(F)c(C(=O)NS(C)(=O)=O)cc2Cl)cc1Cl", "note": "[Example 34, 5-Chloro-4-{[(5-chloro-6-d1-isopropoxypyridin-3-yl)oxy]methyl}-2-fluoro-N-(methylsulfonyl)benzamide]", "IC50": 0.0822}, {"compound": "CC(C)Oc1ncc(OCc2cc(F)c(C(=O)NS(C)(=O)=O)cc2Cl)cc1Cl", "note": "[Example 35, 5-Chloro-4-((5-chloro-6-isopropoxypyridin-3-yloxy)methyl)-2-fluoro-N-(methylsulfonyl)benzamide]", "IC50": 0.028}, {"compound": "CC(C)C(F)(F)c1ncc(OCc2cc(F)c(C(=O)NS(C)(=O)=O)cc2Cl)cc1Cl", "note": "[Example 36, 5-Chloro-4-({[5-chloro-6-(1,1-difluoro-2-methylpropyl)pyridin-3-yl]oxy}methyl)-2-fluoro-N-(methylsulfonyl)benzamide]", "IC50": 0.0527}, {"compound": "CS(=O)(=O)NC(=O)c1cc(Cl)c(COc2cnc(OCC(F)(F)C(F)F)c(Cl)c2)cc1F", "note": "[Example 37, 5-Chloro-4-({[5-chloro-6-(2,2,3,3-tetrafluoropropoxy)pyridin-3-yl]oxy}methyl)-2-fluoro-N-(methylsulfonyl)benzamide]", "IC50": 0.0091}, {"compound": "CC(C)(C)c1ncc(OCc2cc(F)c(C(=O)NS(C)(=O)=O)cc2Cl)cc1Cl", "note": "[Example 38, 4-{[(6-tert-Butyl-5-chloropyridin-3-yl)oxy]methyl}-5-chloro-2-fluoro-N-(methylsulfonyl)benzamide]", "IC50": 0.0215}, {"compound": "[2H]C([2H])([2H])C([2H])(Oc1ncc(OCc2cc(F)c(C(=O)NS(C)(=O)=O)cc2Cl)cc1Cl)C([2H])([2H])[2H]", "note": "[Example 39, 5-Chloro-4-{[(5-chloro-6-d7-isopropoxypyridin-3-yl)oxy]methyl}-2-fluoro-N-(methylsulfonyl)benzamide]", "IC50": 0.0399}, {"compound": "CS(=O)(=O)NC(=O)c1cc(Cl)c(COc2cnc(OC(F)F)c(Cl)c2)cc1F", "note": "[Example 41, 5-Chloro-4-({[5-chloro-6-(difluoromethoxy)pyridin-3-yl]oxy}methyl)-2-fluoro-N-(methylsulfonyl)benzamide]", "IC50": 0.0623}, {"compound": "CS(=O)(=O)NC(=O)c1cc(Cl)c(COc2cnc(C3CC3)c(Cl)c2)cc1F", "note": "[Example 42, 5-Chloro-4-{[(5-chloro-6-cyclopropylpyridin-3-yl)oxy]methyl}-2-fluoro-N-(methylsulfonyl)benzamide]", "IC50": 0.0518}, {"compound": "CS(=O)(=O)NC(=O)c1cc(Cl)c(COc2cnc(OCC(F)(F)F)c(Cl)c2)cc1F", "note": "[Example 43, 5-Chloro-4-({[5-chloro-6-(2,2,2-trifluoroethoxy)pyridin-3-yl]oxy}methyl)-2-fluoro-N-(methylsulfonyl)benzamide]", "IC50": 0.0425}, {"compound": "CS(=O)(=O)NC(=O)c1cc(Cl)c(COc2cnc(OCCC(F)(F)F)c(Cl)c2)cc1F", "note": "[Example 44, 5-Chloro-4-({[5-chloro-6-(3,3,3-trifluoropropoxy)pyridin-3-yl]oxy}methyl)-2-fluoro-N-(methylsulfonyl)benzamide]", "IC50": 0.0258}, {"compound": "CC(C)(F)COc1ncc(OCc2cc(F)c(C(=O)NS(C)(=O)=O)cc2Cl)cc1Cl", "note": "[Example 45, 5-Chloro-4-({[5-chloro-6-(2-fluoro-2-methylpropoxy)pyridin-3-yl]oxy}methyl)-2-fluoro-N-(methylsulfonyl)benzamide]", "IC50": 0.0582}]}]}
